We go through 3 molecules from paper PMC10582335 (Frontiers in Pharmacology, 2023).

On the set-up of series [1]: method as in Frost et al., 2015. Conditions: ref Frost et al., 2015, cited from earlier work.
A short description of series [2]: Pharmacokinetics of apixaban in rats, alone and after multiple doses of almonertinib. It is filed as in vivo, Sprague-Dawley (SD) rats. The following applies: for increase of AUC of apixaban: multiple doses of almonertinib; for MRT inf / MRT last / AUC(0-inf) / AUC(0-t) / Cmax / Tmax / CL/F / Vd/F / half-life: male, Sprague-Dawley, rat, po; for MRT inf: read-out: MRT0-∞; for MRT last: read-out: MRT0-t; for CL/F: read-out: CLz/F (converted); for Vd/F: read-out: Vz/F; for half-life: read-out: t1/2z (converted). As to the method: Chromatographic separation was performed using an XSelect HSS T3 column (2.1 mm × 100 mm, 2.5 µm, Waters, Milford, MA, United States) at 40°C by gradient elution. The mobile phase consisted of water (A) and acetonitrile (0.1% formic acid, B). […] The flow rate was 0.35 mL min^−1, and the injection volume was 6 µL. The positive ion mode with multiple reaction detection was used. […] The mass spectrometer conditions, including delustering potential (DP) and collision energy (CE) of the compounds, are shown in Table 1. […] Protein precipitation was used to process the plasma samples. 5 μL of mixed IS working solution, 50 µL of the plasma samples, and 150 µL of acetonitrile were vortex-mixed for 1.0 min. […] The supernatant was transferred to a 96-well plate for sample analysis. […] (Beijing, China). […] The study was approved and supervised by the Animal Ethics Committee of Hebei General Hospital (Shijiazhuang, China) (No. 2023024). Adaptive feeding (sufficient food and water) was performed for 1 week before the experiment. […] All rats were fasted for 12 h before starting the experiments while still given water. Sixty healthy rats were randomly divided into ten groups (n = 6). […] Blood samples were centrifuged at 3,500 g for 10 min, and then the supernatant was gathered and stored in a −80°C refrigerator. After, rat intestine, kidney and liver tissues were harvested for molecular analysis on the ninth or fifth day after treatment with the corresponding drugs for each group. The tissues were placed immediately at −80°C. DAS 2.1.1 Software (Mathematical Pharmacology Professional Committee of China, Shanghai, China) was applied to calculate pharmacokinetic parameters using non-compartmental analysis. SPSS 25.0 statistical software (SPSS Inc., Chicago, IL, United States) was applied to statistically analyze the main pharmacokinetic parameters, including AUC, Cmax, Tmax, t1/2, CLz/F, Vz/F, and MRT.

Another series relates to Cyp3a1 mRNA (CYP3A4). The series is described as follows: qRT-PCR of mRNA expression in rat tissues after multiple-dose almonertinib. It is filed as in vivo. The following applies: rats given almonertinib for nine consecutive days, n = 3. As to the method: (§1) Sixty healthy rats were randomly divided into ten groups (n = 6). […] Blood samples were centrifuged at 3,500 g for 10 min, and then the supernatant was gathered and stored in a −80°C refrigerator. After, rat intestine, kidney and liver tissues were harvested for molecular analysis on the ninth or fifth day after treatment with the corresponding drugs for each group. The tissues were placed immediately at −80°C.
(§2) qRT-PCR analysis was used to determine mRNA levels of Abcb1a, Abcg2 and Cyp3a1 in the liver and intestines, and Abcb1a and Abcg2 in the kidney of rats. Total RNA was isolated from frozen liver, intestine and kidney samples using TRNzol Universal according to the manufacturer’s instructions. A Bio Tek Epoch (Bio Tek Instruments, Inc., Winooski, VT, United States) was employed to quantify the purity and concentration of the total RNA based on the ratio of the absorbance between 260 and 280 nm. RNA samples of 1 µg were transformed to complementary DNA (cDNA) using the FastKing RT Kit. The real-time PCR assays were accomplished using a two-step amplification method based on the recommendations in a SLAN-96S Real-Time PCR system (Shanghai Hongshi Medical Technology Co., Ltd. Shanghai, China). […] was used as an internal control, and the PCR cycling criteria were as follows: 95°C for 15 min, then 40 cycles of 95°C for 10, and 60°C for 32 s.

Another series concerns Abcg2 mRNA (BCRP). The series is described as above. Type of series: in vivo. The following applies: intestine, rats given almonertinib for nine consecutive days, n = 3. As to the method:
as §1, §2

On the set-up of series [3]: method as in Kim et al., 2019. Conditions: with verapamil (inhibitor of P-gp and CYP3A4); ref Kim et al., 2019; cited from earlier work.
Setting [4] is: apixaban 0.25 mg/kg with multiple doses of almonertinib (group 8) compared with group 2, rats.
The mark [5] stands for this setting: apixaban 0.5 mg/kg with multiple doses of almonertinib (group 7) compared with group 2, rats.
Setting [6] is: plasma, 0.25 mg/kg, rats, oral apixaban 0.25 mg/kg after almonertinib 15 mg/kg for nine days (group 8), mean ± SD, n = 6.
Setting [7] is: plasma, 0.5 mg/kg, rats, oral apixaban 0.5 mg/kg after almonertinib 15 mg/kg for nine days (group 7), mean ± SD, n = 6.
Where [8] appears, read: plasma, 0.5 mg/kg, rats, oral apixaban 0.5 mg/kg alone (group 2), mean ± SD, n = 6.

Where “and” joins values, the source holds several entries; their conditions need not be identical. Identical values can stand only once. Like-named read-outs stand apart in the source and are kept apart here.

As a reminder, the AUC(0-inf) is the area under the concentration-time curve extrapolated to infinity. A lower AUC(0-inf) goes with less exposure. A word on the AUC(0-t): it is exposure summed from dosing to a finite time, without extrapolation to infinity. Low values mean less exposure, high ones more exposure. As a reminder, the Cmax is the maximum level reached in the sampled fluid or tissue. Broadly, the Tmax is the time from dosing to the highest level.

In the case of `COc1ccc(-n2nc(C(N)=O)c3c2C(=O)N(c2ccc(N4CCCCC4=O)cc2)CC3)cc1` [apixaban, Apixaban], the “increase in exposure to apixaban” value in series [1] (combined with diltiazem) is listed as 1.4 fold. Further, the “increase in exposure to apixaban” value in series [1] (combined with ketoconazole) was 2.0 fold. For the same molecule, the “increase of Cmax of apixaban” value in series [2] (apixaban 0.25 mg/kg with multiple doses of almonertinib (group 8) compared with apixaban 0.5 mg/kg alone (group 2), rats) is 2.19 fold and 2.2 fold. For the same molecule, in series [2] (setting [4]), the “decrease of CLz/F of apixaban” value came to 5.29 fold, the “increase of AUC0-t of apixaban” value amounted to 2.06 fold and the “increase of AUC0-∞ of apixaban” value is listed as 2.02 fold. For the same molecule, the “increase of Cmax of apixaban” value in series [2] (apixaban 0.5 mg/kg with multiple doses of almonertinib (group 7) compared with apixaban 0.5 mg/kg alone (group 2), rats) is 2.69 fold and ~3.0 fold. In addition, in series [2] (setting [5]), the “decrease of CLz/F of apixaban” value came to 3.00 fold, the “increase of AUC0-t of apixaban” value is given as 2.87 fold and the “increase of AUC0-∞ of apixaban” value is 2.82 fold. In addition, the “increase of AUC of apixaban” value in series [2] (dose of apixaban reduced by half, rats (discussion)) stood at 2.1 fold. In addition, the MRT inf in series [2] (in vivo, 0.25 mg/kg) is 2.06 ± 0.36 h. Moreover, in series [2] (in vivo, 0.5 mg/kg), the MRT last was found to be 2.19 ± 0.13 h. In series [2] (setting [6]), the AUC(0-inf) was 1870 ± 528 ng·h/mL, the AUC(0-t) was 1870 ± 529 ng·h/mL, the peak concentration (Cmax) is 645 ± 191 ng/mL and the Tmax was 0.79 ± 0.25 h. Also, in series [2] (setting [6]), the CL/F is 2.33 mL/min/kg, the Vd/F was determined as 0.44 ± 0.11 L/kg and the half-life is 2.17 ± 0.15 h. For the same molecule, the MRT last in series [2] (plasma, 0.25 mg/kg) came out at 2.01 ± 0.32 h. For the same molecule, in series [2] (setting [7]), the AUC(0-inf) worked out at 2370 ng·h/mL, the AUC(0-t) amounted to 2360 ng·h/mL, the Cmax turned out to be 747 ± 159 ng/mL and the Tmax amounted to 0.63 ± 0.14 h. For the same molecule, in series [2] (setting [7]), the CL/F was 3.67 mL/min/kg, the MRT inf was found to be 2.11 ± 0.13 h, the Vd/F amounted to 0.58 ± 0.2 L/kg and the half-life is 1.81 ± 0.23 h. In series [2] (setting [8]), the AUC(0-inf) is 621 ± 168 ng·h/mL, the AUC(0-t) was 611 ± 168 ng·h/mL, the Cmax was 202 ± 50.9 ng/mL and the Tmax was 0.68 ± 0.28 h. For the same molecule, in series [2] (setting [8]), the CL/F was 14.7 mL/min/kg, the MRT inf was found to be 2.42 ± 0.16 h, the Vd/F was 3.72 ± 1.63 L/kg and the half-life is 2.95 ± 0.96 h. For the same molecule, in series [2] (plasma, 0.5 mg/kg), the MRT last is 2.08 ± 0.13 h. In addition, in series [2] (rats (discussion, AUC not specified further)), the “increase of AUC of apixaban” value was roughly 3.0 fold.
In the case of `C=CC(=O)Nc1cc(Nc2nccc(-c3cn(C4CC4)c4ccccc34)n2)c(OC)cc1N(C)CCN(C)C` [almonertinib, Almonertinib], the “inhibition of mRNA expression of Cyp3a1” value in the series on Cyp3a1 mRNA (CYP3A4) (intestine) is recorded as 96.9%; in the series with Cyp3a1 mRNA (CYP3A4) (liver), 45.5%. Besides, the “inhibition of mRNA expression of Abcg2” value in the series on Abcg2 mRNA (BCRP) was determined as 28.0%.
As to `O=C(NC[C@H]1CN(c2ccc(N3CCOCC3=O)cc2)C(=O)O1)c1ccc(Cl)s1` [rivaroxaban, Rivaroxaban], the “increase of systemic exposure of rivaroxaban” value in series [3] is listed as 2.8 fold.
